Nine compounds from patent EP4501942A1, “PEPTIDOMIMETICS WITH ANTIVIRAL ACTIVITY” (priority 2023, dated 2025) can be followed below.

Each structure is given as a SMILES string. Like-named read-outs stand apart in the source and are kept apart here.

Series [1] has as its system GFP-expressing recombinant vesicular stomatitis virus (VSV-GFP). The series is described as follows: microbe, parasite or virus in culture. The class given is cell-based. The note with it: A549-ACE2, 16 h.
Series [2] can be described thus: in vitro. Particulars: human.
Series [3] has as its target SARS-CoV-2 M^pro protein (Severe acute respiratory syndrome coronavirus 2, UniProt P0DTD1). The series is described as follows: biochemical. The note with it: for IC50: isolated SARS-CoV-2 M^pro, three separate experiments in duplicate, read-out: IC50, mean±SD; for inhibition at 10 µM: read-out: % of inhibition at 10 µM.
The test system of series [4] is SARS-CoV-2. Briefly: microbe, parasite or virus in culture. The note with it: Severe acute respiratory syndrome coronavirus 2, SARS-CoV-2, A549-ACE2 cells, MOI 0.005, 48 h; for EC50: read-out: EC50; for EC90: read-out: EC90. The class given is cell-based.
Series [5] in a line: in vitro.
The nature of series [6]: Cytotoxicity MTT assay in uninfected A549-ACE2 cells. The note with it: human. Type of series: cell-based. How it is done:
To evaluate the cytotoxicity profile of the compounds MTT assays were performed in A549-ACE2 cells. Uninfected cells were incubated with a range of compound concentrations (from 100 to 1 µM) for forty-eight hours, time at which the MTT substrate [3-(4,5-dimethylthiazol-2-yl)-2,5-diphenyltetrazolium bromide] was added and the formation of formazan precipitates was evaluated two hours later, using a colorimetric readout. Vehicle-treated (DMSO) cells were used as reference (100 %).

In general, EC50 refers to the concentration that produces a half-maximal response. As usually defined, the EC90 is the concentration needed for an effect of 90%. For `Cc1c(-c2ccc(-c3ccccc3F)cc2)nc2ccc(F)cc2c1C(=O)O` [Brequinar, reference compound], in series [1], the EC50 was < 0.6 µM and the 90% effect concentration (EC90) is < 0.6 µM. For the same compound, the CC50 in series [2] is > 50 µM.

A word on the IC50: it is the concentration that inhibits the measured activity by half. As for `CC(C)[C@H](NC(=O)OC(C)(C)C)C(=O)N1C[C@@H](C)[C@@]1(Cc1ccccc1)C(=O)N[C@H](C#N)C[C@@H]1CCNC1=O` [Example 6], the IC50 in series [3] is 70 ± 10 nM. The 50% effective concentration (EC50) is 1000 nM in series [4] and > 50 µM in series [1]. For the same compound, the results for the EC90 in series [4] and in series [1] were 3000 nM and > 50 µM, respectively. In addition, the CC50 in series [5] and in series [2] was > 50 µM in each case. In addition, the CC50 at 48 h in series [6] was > 100 µM.

On to `C[C@@H]1CN(C(=O)[C@@H](NC(=O)OC(C)(C)C)C(C)(C)C)[C@]1(Cc1ccccc1)C(=O)N[C@H](C#N)C[C@@H]1CCNC1=O` [Example 14], for which, in series [3], the half-inhibitory concentration (IC50) is 300 ± 30 nM. Moreover, the values for the EC50 in series [4] and in series [1] were 1000 nM and > 50 µM, respectively. For the same compound, the EC90 was 3000 nM in series [4] and > 50 µM in series [1]. In addition, the CC50 in series [5] and in series [2] was > 50 µM in each case. In series [6], the CC50 at 48 h is > 100 µM.

Broadly, the inhibition is the percentage by which the read-out fell short of the control. Regarding `CCCC[C@@H](C#N)NC(=O)[C@]1(CC(C)C)[C@H](C)CN1C(=O)[C@@H](NC(=O)NC(C)(C)C)C(C)(C)C` [Example 25, ^tBuNHCO-L-Tbg-(αS,β'R)-Azl-NH-[(1S)-1-cyano]pentane], in series [3], the inhibition at 10 µM was 0%. Further, in series [5], the CC50 was > 50 µM. For the same compound, in series [1], the EC50 is > 50 µM and the concentration for an effect of 90% (EC90) was > 50 µM. Moreover, in series [2], the CC50 is > 50 µM.

As to `CC(C)C[C@@]1(C(=O)N[C@H](C=O)C[C@@H]2CCNC2=O)[C@H](C)CN1C(=O)[C@@H](NC(=O)OCc1ccccc1)C(C)C` [Example 27, Z-L-Val-(αS,β'R)-Azl-L-Ala(3S-2-oxopyrrolidin-3-yl)-H], the IC50 in series [3] stood at 77 ± 20 nM. Also, the figures for the 50% effective concentration (EC50) in series [4] and in series [1] were 1000 nM and > 50 µM, respectively. Further, the EC90 is 5000 nM in series [4] and > 50 µM in series [1]. Also, the CC50 in series [2] was > 50 µM. Further, the CC50 at 48 h in series [6] was > 100 µM.

For the compound `C[C@@H]1CN(C(=O)[C@@H](NC(=O)OC(C)(C)C)C(C)(C)C)[C@]1(Cc1ccccc1)C(=O)N[C@H](C=O)C[C@@H]1CCNC1=O` [Example 29, Boc-L-Tbg-(αS,β'R')-Azf-L-Ala(3S-2-oxopyrrolidin-3-yl)-H], the 50% inhibitory concentration (IC50) in series [3] stood at 27 ± 6 nM. Moreover, the figures for the EC50 in series [4] and in series [1] were 1000 nM and > 50 µM, respectively. Besides, the EC90 in series [4] is 2000 nM; in series [1] it was > 50 µM. For the same compound, the CC50 in series [5] and in series [2] was > 50 µM in each case. Further, in series [6], the CC50 at 48 h is > 100 µM.

Turning to `CCCC[C@@H](C#N)NC(=O)[C@]1(CC(C)C)[C@H](C)CN1C(=O)[C@@H](NC(=O)OC(C)(C)C)C(C)(C)C` [Example 34, Boc-L-Tbg-(aS,β'R)-Azl-NH-[(1S)-1-cyano]pentane], the inhibition at 10 µM in series [3] was determined as 0%. Besides, the CC50 in series [5] was > 50 µM.

As for `CC(C)[C@H](NC(=O)OC(C)(C)C)C(=O)N1C[C@@H](C)[C@@]1(CC1CCCCC1)C(=O)N[C@H](C#N)C[C@@H]1CCNC1=O` [Example 36], the IC50 in series [3] was found to be 190 ± 10 nM. The values for the EC50 in series [4] and in series [1] were 2000 nM and > 50 µM, respectively. For the same compound, the figures for the EC90 in series [4] and in series [1] were 4000 nM and > 50 µM, respectively. The CC50 in series [5] and in series [2] was > 50 µM each time. In addition, the CC50 at 48 h in series [6] is > 100 µM.

On to `CC(C)(C)[C@@H]1NC(=O)O[C@@H]2CCC[C@H]2OC/C=C/C(F)(F)c2nc3ccccc3nc2O[C@@H]2C[C@@H](C(=O)N[C@]3(C(=O)NS(=O)(=O)C4(C)CC4)C[C@H]3C(F)F)N(C2)C1=O` [Glecaprevir, reference compound], for which the CC50 in series [5] was > 50 µM.
